Like-named read-outs stand apart in the source and are kept apart here.
Key:
[1] = tested on: SH-SY5Y; assay: Neurotoxicity (Ntox) assay: SH-SY5Y viability after supernatant from activated differentiated THP-1 cells; assay type: cell-based, human; settings: 25 μM compound on THP-1; SH-SY5Y viability 72 h post-addition of supernatant
Excerpt: This study used differentiated (using phorbol myristate acetate, PMA) human acute monocytic leukemia cells, THP-1, cultured in RPMI 1640 medium supplemented with additives. Earlier studies with THP-1 cell line indicate that upon LPS/IFNγ activation, these cells release neurotoxic factors [Cheung Y T, et al. Neurotoxicology. 2009; 30(1):127-35]. These are remarkably plastic cells, which can potentially polarize to multiple cell lineages on the application of specific stimuli. On treatment with PMA, the suspension (floating cells) mature to a highly adherent phenotype with increased phagocytic ability (macrophage/microglia like). Typically, after PMA differentiation THP-1 monocytes, display increased cell surface expression of CD11b and CD14. PMA differentiated macrophage/microglia with a combination of LPS/IFNγ/amyloid beta peptide were used to activate the cells; and small synthetic molecules were tested. The cell-free supernatant generated from microglia were then transferred to previously mature neuronal cells lines.
Seed (0.5×10^6) THP-1 cells in each well of a 12-well tissue culture plate in warm complete growth medium up to 500 μl to 1 ml per well. […]

[2] = target: biotinylated amyloid-beta(1-42) (bioAbeta42) (Homo sapiens, UniProt P05067); assay type: biochemical; settings: Example 5; ND = inhibition activity not detected over 200 μM; read-out: Inhibition of Aβ oligomerization, μM IC50
[3] = tested on: differentiated THP-1 cells; assay: Anti-inflammatory cytokine levels (M2 indicators) during neurotoxicity assay; assay type: cell-based, human; settings: FIG. 6
Excerpt: This study used differentiated (using phorbol myristate acetate, PMA) human acute monocytic leukemia cells, THP-1, cultured in RPMI 1640 medium supplemented with additives. […] On treatment with PMA, the suspension (floating cells) mature to a highly adherent phenotype with increased phagocytic ability (macrophage/microglia like). Typically, after PMA differentiation THP-1 monocytes, display increased cell surface expression of CD11b and CD14. PMA differentiated macrophage/microglia with a combination of LPS/IFNγ/amyloid beta peptide were used to activate the cells; and small synthetic molecules were tested. The cell-free supernatant generated from microglia were then transferred to previously mature neuronal cells lines. The THP-1 monocytes should have adhered to the plate by now; these are defined as M0 macrophages. Remove the differentiating medium containing PMA and add the Experimental medium with stimulants at a final concentration of IFNγ 400 ng/ml and LPS 1 μg/ml. These stimulants are the first stimulus for the conversion into M1 macrophages. Keep the first stimulus on for three hours and add 25 μM of compounds in the required wells (This is aimed at converting M1→M2 macrophages/microglia like cells). […]

[4] = target: Aβ 1-40 (Homo sapiens, UniProt P05067); assay: Aβ ThT aggregation (fibrillization) assay; assay type: biochemical
[5] = tested on: SIM-A9 cells; assay: Anti-inflammation assay: TNF-α production from LPS stimulated SIM-A9 cells (ELISA); assay type: cell-based
[6] = compound at 100 μM, Example 5, versus DMSO control, read-out: Inhibition of Aβ fibrillization at concentration 100 μM, Inhibition %
[7] = read-out: Inhibition of Aβ fibrillization at concentration 100 μM, Inhibition %, compound at 100 μM, Example 5, versus DMSO control
[8] = SIM-A9, read-out: TNF-α Inhibition
[9] = read-out: % inhibition of Aβ fibrillization (at 100 μ M), compound at 100 μM, Example 3
[10] = compound 2.7 μM, LPS stimulated SIM-A9 cells, read-out: TNF-α Inhibition
[11] = compound at 100 μM, Example 5, versus DMSO control

Aβ 1-40, sequence (P05067 672-711): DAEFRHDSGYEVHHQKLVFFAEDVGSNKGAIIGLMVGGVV
biotinylated amyloid-beta(1-42) (bioAbeta42), sequence (P05067 672-713): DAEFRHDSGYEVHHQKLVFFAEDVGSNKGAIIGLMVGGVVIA

Row | Compound | IC50 [2] [µM] | inhibition at 100 µM [4, 7] [%] | inhibition at 2.7 µM [5, 8] [%] | inhibition at 2.7 µM [5, 10] [%] | other results
1 | O=C(O)c1ccccc1NCc1ccccc1 [2-(benzylamino)benzoic acid] |  |  |  |  | Rescue of neuronal cells under Aβ-induced neurotoxicity / neuroinflammation [1]: able to rescue neuronal cells under Aβ-induced neurotoxicity
2 | NS(=O)(=O)c1cc(C(=O)O)c(NCc2ccco2)cc1Cl [Furosemide, 4-Chloro-2-((furan-2-ylmethyl)amino)-5-sulfamoylbenzoic Acid, reference compound] | > 200 |  |  |  | Concentrations of anti-inflammatory cytokines (IL-4, IL-10, IL-1RA, Arginase; M2 indicators) [3]: increases the concentrations of anti-inflammatory cytokines; inhibition at 100 µM [4, 6]: 8.56%
3 | COc1ccc(C(O)C(F)(F)F)c(NCc2ccco2)c1 (stereo not drawn) [WW003, 2,2,2-trifluoro-1-(2-((furan-2-ylmethyl)amino)-4-methoxyphenyl) ethan-1-ol] | > 200 | 36.8 | 28 |  | 
4 | COc1ccc(C(O)C(F)(F)F)c(NCc2cscn2)c1 (stereo not drawn) [WW005] | 130 ± 28.4 | 6.49 | 27 |  | 
5 | OC(c1ccc(F)cc1NCc1ccco1)C(F)(F)F (stereo not drawn) [WW011, 2,2,2-Trifluoro-1-(4-fluoro-2-((furan-2-ylmethyl)amino)phenyl) ethan-1-ol] | 153 ± 48 | 5.14 | 25.9 |  | 
6 | OC(c1ccc(Cl)cc1NCc1ccco1)C(F)(F)F (stereo not drawn) [WW013, 1-(4-Chloro-2-((furan-2-ylmethyl)amino)phenyl)-2,2,2-trifluoroethan-1-ol] | > 200 | 60.7 | 33 |  | 
7 | OC(c1ccc(Br)cc1NCc1ccco1)C(F)(F)F (stereo not drawn) [WW016, 1-(4-Bromo-2-((furan-2-ylmethyl)amino)phenyl)-2,2,2-trifluoroethan-1-ol] | > 200 | 81 | 34.8 |  | inhibition at 100 µM [4, 9]: 81.3%
8 | OC(c1ccc(Br)cc1NCc1cscn1)C(F)(F)F (stereo not drawn) [WW017, 1-(4-Bromo-2-((thiazol-4-ylmethyl)amino)phenyl)-2,2,2-trofluoroethan-1-ol] | > 200 | 33 | 31 |  | inhibition at 100 µM [4, 9]: 33%
9 | OC(c1ccc(Cl)cc1NCc1cscn1)C(F)(F)F (stereo not drawn) [WW021, 1-(4-Chloro-2-((thiazol-4-ylmethyl)amino)phenyl)2,2,2-trifluoroethan-1-ol] | > 200 | 27.9 | 38 |  | 
10 | O=C(O)c1cc(S(=O)(=O)N2CCCCC2)c(Cl)cc1NCc1ccco1 [WW096, 4-Chloro-2-((furan-2-ylmethyl)amino)-5-(piperidin-1-ylsulfonyl) Benzoic Acid] | > 200 |  |  | 11 | inhibition at 100 µM [4, 6]: 19.1%
11 | CNS(=O)(=O)c1cc(C(=O)OC)c(NCc2ccco2)cc1Cl [WW100] | 56 ± 26.6 |  |  | 31 | inhibition at 100 µM [4, 6]: 27.1%
12 | CNS(=O)(=O)c1cc(C(N)=O)c(NCc2ccco2)cc1Cl [WW101, 4-Chloro-2-((furan-2-ylmethyl)amino)-5-(N-methylsulfamoyl)benzamide] | 82.4 ± 28.5 |  |  | 27 | Inhibition of Aβ fibrillization at concentration 100 μM, Inhibition % [4, 11]: Pro- fibrillization
13 | CNC(=O)c1cc(S(=O)(=O)NC)c(Cl)cc1NCc1ccco1 [WW102, 4-Chloro-2-((furan-2-ylmethyl)amino)-N-methyl-5-(N-methylsulfamoyl)benzamide] | 103 ± 22.1 |  |  | 25 | Inhibition of Aβ fibrillization at concentration 100 μM, Inhibition % [4, 11]: Pro- fibrillization
